We go through five compounds from patent US20250339433A1, “PHARMACEUTICAL COMPOSITION FOR PREVENTION, ALLEVIATION, OR TREATMENT OF CANCER” (JBKLAB CO.,LTD., priority 2021, published 2025).

For one series, the system named is A549. Briefly: Cell viability assay (WST-8), cytotoxicity on cancer cell lines. It counts as cell-based, human. The procedure:
(§1) The cytotoxicity of the compound of Example 1 against various cancer cell lines was evaluated. Etoposide, sold as an anticancer agent, was used as a control group drug. Specifically, the cell viability assay was performed as follows. A549, SK-OV-3, SK-MEL-2, and HCT15 cell lines were seeded in 96 well plates at the density of 5×10^3 cells per well and cultured for 24 hours. Then, the plates were treated with the compound of Example 1 or etoposide at different concentrations, followed by culture for 24 and 48 hours. At the end of the culture, 100 μl of WST-8 solution was added to each well of the plate, and the absorbance was measured with a microplate reader using a 450 nm optical filter to measure the formazan produced by the reducing factors in living cells. • A549: human non-small cell lung cancer cells • SK-OV-3: human ovarian cancer cells • SK-MEL-2: human melanoma cells • HCT15: human colorectal cancer adenocarcinoma cells
In general terms: Tetrazolium dyes change colour on reduction, which living cells bring about.

For the next series, the system named is HCT15. The description is as above. It counts as cell-based, human. The conditions noted are these: HCT15, 24 and 48 hours, dose dependently. The procedure:
as §1

For another series, the system named is SK-MEL-2. Described as above. The format is cell-based, human. The conditions noted are these: SK-MEL-2, 24 and 48 hours, dose dependently. The procedure: as §1
For another series, the system named is SK-OV-3. Described as above. The format is cell-based, human. Conditions: SK-OV-3, 24 and 48 hours, dose dependently. The procedure: as §1
Series [1] relates to MDA-MB-231. Briefly: Breast cancer growth inhibition in xenograft nude mice. The format is in vivo. Conditions: 25 mpk intravenously. The procedure: An experiment was performed to confirm the tumor inhibition of the compound of Example 1, the active ingredient of the pharmaceutical composition of the present invention, on a xenograft tumor sample of breast cancer cells (MBA-MB-231), a human-derived TNBC cell line.
Specifically, to confirm the effect of the compound of Example 1, which is the active ingredient of the pharmaceutical composition provided by the present invention, on the inhibition of breast cancer cell growth, an experiment was performed using 80 female 5-week-old xenograft Balb/c nude mice. The experimental xenograft Balb/c nude mice lacks T cells, the immune cells, were selected as an animal model suitable for transplanting human cancer cells. At the time of administration, animals within ±20% of the total average body weight were selected, and tumor growth was checked twice a week on the surface, and the size of the tumor was measured with a vernier caliper for 3 weeks. In addition, the compound of Example 1 was administered intravenously at a concentration of 25 mpk, and 30% PEG was used as a solvent.

Series [2] relates to MDA-MB-231. Briefly: Number of mitotic figures / apoptotic bodies in xenograft tumor tissue (H&E). It counts as in vivo, BALB/c-nude mice. Conditions: for Mitotic index: sum of five areas at x400. The procedure: An experiment was performed to evaluate the tumor necrosis effect of the compound of Example 1 by measuring the number of apoptotic bodies in tumors and H&E staining of tumor tissues in BALB/c-nude mice injected with cancer cell lines. […] After calculating the sum of the measurements and expressing them as individual values, statistical comparative analysis was performed using GraphPad Prism 5. As a result of observing the apoptotic body, it was observed that the cells were shrunk and divided (blebs) and that empty space (hollow) surrounded the periphery. […] Since the frequency of mitotic figures in tumor tissue is related to the dividing ability of tumor cells, it can reflect the degree of malignancy of the tumor.

For another series, the system named is OVCAR-3. Nature of the series: Combination with cisplatin, cell viability. It counts as cell-based, human. The procedure:
(§2) Human ovarian cancer cell lines (SKOV-3 and OVCAR-3) were treated with control (no treatment), 0.1 μM of the compound of Example 1, 10 μM of cisplatin, […], and the cell viability of SKOV-3 and OVCAR-3 was confirmed.

Another series relates to SKOV-3. Nature of the series: Combination with cisplatin, cell viability. The format is cell-based, human. The procedure: as §2
Another series concerns Huh-7. Nature of the series: Combination with sorafenib, cell viability / caspase-3 activity. It counts as cell-based, human. The procedure:
(§3) Human liver cancer cell lines (SK Hep1 and Huh-7) were treated with control (no treatment), 5 μM of the compound of Example 1, 0.1 μM of sorafenib, and 5 μM of the compound of Example 1/0.1 μM of sorafenib, and the cell viability of SK Hep1 and Huh-7 was confirmed.

The test system of the next series is SK Hep1. The description is as above. It counts as cell-based, human. The procedure: as §3
The test system of another series is BT20. Briefly: Breast cancer cell viability assay (WST-8). It counts as cell-based, human. Conditions: dose dependently. The procedure:
(§4) An experiment was performed to confirm the growth inhibitory effect of the compounds of Examples 1 and 2, the active ingredients of the pharmaceutical composition of the present invention, on breast cancer cell lines through cell viability assay.
(§5) Specifically, the cell viability assay was performed as follows. BT20, a human-derived breast cancer cell line, and MDA-MB-231, a TNBC cell line, were each seeded in 96-well plates at the density of 5×10^3 cells/well and cultured for 24 hours. […] At the end of the culture, 100 μl of WST-8 solution was added to each well of the plate, and the absorbance was measured with a microplate reader using a 450 nm optical filter to measure the formazan produced by the reducing factors in living cells.

Series [3] concerns MDA-MB-231. Briefly: Breast cancer cell viability assay (WST-8). It counts as cell-based, human. The conditions noted are these: dose dependently. The procedure:
as §4, §5

Another series concerns MDA-MB-453. Briefly: Breast cancer cell viability assay (WST-8). The format is cell-based. The conditions noted are these: MDA-MB-453, 24 hours, dose dependently. The procedure:
Specifically, the cell viability assay was performed as follows. BT20, a human-derived breast cancer cell line, and MDA-MB-231, a TNBC cell line, were each seeded in 96-well plates at the density of 5×10^3 cells/well and cultured for 24 hours. Then, I-bet 762 and the compounds were treated thereto at different concentrations and cultured for 48 hours. At the end of the culture, 100 μl of WST-8 solution was added to each well of the plate, and the absorbance was measured with a microplate reader using a 450 nm optical filter to measure the formazan produced by the reducing factors in living cells.
FIGS. 10A and 10B show the cell viability of MDA-MB-231, MDA-MB-453, and BT-20 after 24 hours of treatment with the compound of Example 3.

As for `c1nc(Nc2ccc(N3CCCC3)cc2)c2cc[nH]c2n1` [Example 1, N-(4-(pyrrolidin-1-yl)phenyl)-7H-pyrrolo[2,3-d]pyrimidin-4-amine], the “toxicity to cancer cell line (cell viability)” value with A549 (A549, 24 and 48 hours, dose dependently) was “excellent toxicity”; with HCT15 it was “excellent toxicity”; in the series with SK-MEL-2, “excellent toxicity”; in the series on SK-OV-3, “excellent toxicity”. Besides, the “toxicity compared with etoposide” value in the series with A549 (various cancer cell lines (A549, SK-OV-3, SK-MEL-2, HCT15)) is “equally or more effective than etoposide”. The “biological toxicity (change in body weight)” value with MDA-MB-231 [1] (3 weeks) was “no biological toxicity”. For the same compound, the cachexia phenomenon result in the series on MDA-MB-231 [1] (3 weeks) is listed as “not observed”. The “tumor growth (change in tumor size/volume)” value in the series on MDA-MB-231 [1] (vs CTL) is “significantly suppressed”. For the same compound, the “tumor growth (change in tumor weight)” value with MDA-MB-231 [1] (vs CTL) is listed as “significantly suppressed”. Besides, the “number of apoptotic bodies” value with MDA-MB-231 [2] (T1 and T2 groups compared to NC, dose dependently) is “higher”. The Mitotic index was determined as 25.5 ± 10.2 with MDA-MB-231 [2] (T1 group (2 times/week)) and 20.8 ± 7.4 in the series on MDA-MB-231 [2] (T2 group (3 times/week)). The cell viability entry in the series on OVCAR-3 (OVCAR-3, 0.1 μM Example 1 in combination with 10 μM cisplatin) was “further inhibited (synergistic effect)”; with OVCAR-3 (OVCAR-3, 0.1 μM alone) it was “suppressed”; in the series with SKOV-3 (SKOV-3, 0.1 μM Example 1 in combination with 10 μM cisplatin), “further inhibited (synergistic effect)”; in the series with SKOV-3 (SKOV-3, 0.1 μM alone) it was “suppressed”; in the series with Huh-7 (Huh-7, 5 μM Example 1 in combination with 0.1 μM sorafenib), “further inhibited (synergistic effect)”; in the series on Huh-7 (Huh-7, 5 μM alone), “suppressed”. The cell viability result is “further inhibited (synergistic effect)” with SK Hep1 (SK Hep1, 5 μM Example 1 in combination with 0.1 μM sorafenib) and “suppressed” in the series with SK Hep1 (SK Hep1, 5 μM alone).

For the compound `CN1CCN(c2ccc(C(=O)Nc3n[nH]c4ncc(Br)cc34)cc2)CC1` [Example 2, N-(5-bromo-1H-pyrazolo[3,4-b]pyridin-3-yl)-4-(4-methylpiperazin-1-yl)benzamide], the cell viability result with BT20 (BT20, 24 and 48 hours) is reported as “inhibited the cell viability”; in the series on MDA-MB-231 [3] (MDA-MB-231, 24 and 48 hours), “inhibited the cell viability”.

For `O=C(Nc1n[nH]c2ncc(-c3cnn(C4CCNCC4)c3)cc12)c1ccc(F)cc1` [Example 3, 4-fluoro-N-(5-(1-(piperidin-4-yl)-1H-pyrazol-4-yl)-1H-pyrazolo[3,4-b]pyridin-3-yl)benzamide], the cell viability entry with BT20 (BT-20, 24 hours) is listed as “suppressed”; with MDA-MB-231 [3] (MDA-MB-231, 24 hours) it was “suppressed”; in the series on MDA-MB-453 it was “suppressed”.

Regarding `N.N.[Cl][Pt][Cl]` [cisplatin, reference compound], the cell viability result in the series with OVCAR-3 (OVCAR-3, 1 μM of cisplatin alone) is given as “suppressed”; with SKOV-3 (SKOV-3, 1 μM of cisplatin alone), “suppressed”.

For `CNC(=O)c1cc(Oc2ccc(NC(=O)Nc3ccc(Cl)c(C(F)(F)F)c3)cc2)ccn1` [sorafenib, reference compound], the cell viability result in the series on Huh-7 (Huh-7, 0.1 μM sorafenib alone) is recorded as “suppressed”; in the series with SK Hep1 (SK Hep1, 0.1 μM sorafenib alone), “suppressed”.
